Assay results as given in PubChem BioAssay AID1963959 (Molecular Pharmacology Branch, DTP, NCI, 2024).
“And” between values parts separate entries of the source, which are not always exact repeats. Identical values can stand only once.

Test system: T-47D spheroids with HUVEC/MSC, viability
Test: Anticancer human tumor T-47D cell line growth inhibition [PI3K];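 also: spheroids exposed to agents for seven days before reading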;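 as to viability, T/C: percent of DMSO vehicle control luminescence so 100% = untreated growth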
Details: for viability, T/C: stronger effect = lower value
Method in brief: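 Complex 3D spheroids (cancer cells + endothelial HUVEC + mesenchymal stem cells); drug pairs of targeted agent x inavolisib/alpelisib/duvelisib/copanlisib; half-log series from ~Cmax, max 10 microM if Cmax unknown; endpoint viability.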

[1] = curve of first compound, second compound 0.00316 µM
[2] = curve of first compound, second compound 0.01 µM
[3] = curve of first compound, second compound 0.0316 µM
[4] = curve of first compound, second compound 0.1 µM
[5] = curve of first compound, second compound 0.316 µM
[6] = curve of first compound, second compound 1 µM
[7] = second compound 0.00316 µM, first compound 0.0316 µM
[8] = second compound 0.00316 µM, first compound 0.1 µM
[9] = second compound 0.01 µM, first compound 0.0316 µM
[10] = second compound 0.01 µM, first compound 0.1 µM
[11] = second compound 0.0316 µM, first compound 0.0316 µM
[12] = second compound 0.0316 µM, first compound 0.1 µM
[13] = second compound 0.1 µM, first compound 0.0316 µM
[14] = second compound 0.1 µM, first compound 0.1 µM
[15] = second compound 0.316 µM, first compound 0.0316 µM
[16] = second compound 0.316 µM, first compound 0.1 µM
[17] = second compound 1 µM, first compound 0.0316 µM
[18] = second compound 1 µM, first compound 0.1 µM
[19] = curve of first compound, second compound 3.16 µM
[20] = curve of first compound, second compound 10 µM
[21] = second compound 0.0316 µM, first compound 0.316 µM
[22] = second compound 0.0316 µM, first compound 1 µM
[23] = second compound 0.0316 µM, first compound 3.16 µM
[24] = second compound 0.0316 µM, first compound 10 µM
[25] = second compound 0.1 µM, first compound 0.316 µM
[26] = second compound 0.1 µM, first compound 1 µM
[27] = second compound 0.1 µM, first compound 3.16 µM
[28] = second compound 0.1 µM, first compound 10 µM
[29] = second compound 0.316 µM, first compound 0.316 µM
[30] = second compound 0.316 µM, first compound 1 µM
[31] = second compound 0.316 µM, first compound 3.16 µM
[32] = second compound 0.316 µM, first compound 10 µM
[33] = second compound 1 µM, first compound 0.316 µM
[34] = second compound 1 µM, first compound 1 µM
[35] = second compound 1 µM, first compound 3.16 µM
[36] = second compound 1 µM, first compound 10 µM
[37] = second compound 3.16 µM, first compound 0.0316 µM
[38] = second compound 3.16 µM, first compound 0.1 µM
[39] = second compound 3.16 µM, first compound 0.316 µM
[40] = second compound 3.16 µM, first compound 1 µM
[41] = second compound 3.16 µM, first compound 3.16 µM
[42] = second compound 3.16 µM, first compound 10 µM
[43] = second compound 10 µM, first compound 0.0316 µM
[44] = second compound 10 µM, first compound 0.1 µM
[45] = second compound 10 µM, first compound 0.316 µM
[46] = second compound 10 µM, first compound 1 µM
[47] = second compound 10 µM, first compound 3.16 µM
[48] = second compound 10 µM, first compound 10 µM

## CC(C)n1nc(-c2ccc3oc(N)nc3c2)c2c(N)ncnc21 + COc1c(OCCCN2CCOCC2)ccc2c3n(c(=NC(=O)c4cnc(N)nc4)nc12)CCN3
[1]
  IC50: 0.0566 µM
[2]
  IC50: 0.0391 µM
[3]
  IC50: 0.00378 µM
[4]
  IC50: < 0.000316 µM
[5]
  IC50: < 0.000316 µM
[6]
  IC50: < 0.000316 µM
Second compound 0.00316 µM, first compound 0.000316 µM
  viability, T/C: 103%
Second compound 0.00316 µM, first compound 0.001 µM
  viability, T/C: 82.3%
Second compound 0.00316 µM, first compound 0.00316 µM
  viability, T/C: 106%
Second compound 0.00316 µM, first compound 0.01 µM
  viability, T/C: 92.5%
[7]
  viability, T/C: 77.6%
[8]
  viability, T/C: 23.1%
Second compound 0.01 µM, first compound 0.000316 µM
  viability, T/C: 103%
Second compound 0.01 µM, first compound 0.001 µM
  viability, T/C: 78.2%
Second compound 0.01 µM, first compound 0.00316 µM
  viability, T/C: 98.5%
Second compound 0.01 µM, first compound 0.01 µM
  viability, T/C: 78.3%
[9]
  viability, T/C: 57.7%
[10]
  viability, T/C: 16.7%
Second compound 0.0316 µM, first compound 0.000316 µM
  viability, T/C: 80.9%
Second compound 0.0316 µM, first compound 0.001 µM
  viability, T/C: 58%
Second compound 0.0316 µM, first compound 0.00316 µM
  viability, T/C: 52.1%
Second compound 0.0316 µM, first compound 0.01 µM
  viability, T/C: 39.9%
[11]
  viability, T/C: 29.8%
[12]
  viability, T/C: 7.95%
Second compound 0.1 µM, first compound 0.000316 µM
  viability, T/C: 46%
Second compound 0.1 µM, first compound 0.001 µM
  viability, T/C: 36.5%
Second compound 0.1 µM, first compound 0.00316 µM
  viability, T/C: 31.2%
Second compound 0.1 µM, first compound 0.01 µM
  viability, T/C: 23.6%
[13]
  viability, T/C: 15.8%
[14]
  viability, T/C: 2.05%
Second compound 0.316 µM, first compound 0.000316 µM
  viability, T/C: 14.4%
Second compound 0.316 µM, first compound 0.001 µM
  viability, T/C: 17.3%
Second compound 0.316 µM, first compound 0.00316 µM
  viability, T/C: 12.6%
Second compound 0.316 µM, first compound 0.01 µM
  viability, T/C: 12.3%
[15]
  viability, T/C: 6.24%
[16]
  viability, T/C: 0.85%
Second compound 1 µM, first compound 0.000316 µM
  viability, T/C: 5.77%
Second compound 1 µM, first compound 0.001 µM
  viability, T/C: 4.9%
Second compound 1 µM, first compound 0.00316 µM
  viability, T/C: 6.77%
Second compound 1 µM, first compound 0.01 µM
  viability, T/C: 5.07%
[17]
  viability, T/C: 3.21%
[18]
  viability, T/C: 1.6%

## C#Cc1c(F)ccc2cc(O)cc(-c3ncc4c(N5CC6CCC(C5)N6)nc(OCC56CCCN5CC(F)C6)nc4c3F)c12 (configuration not stated) + CC(Nc1ncnc2nc[nH]c12)c1cc2cccc(Cl)c2c(=O)n1-c1ccccc1
[3]
  IC50: > 10 µM
[4]
  IC50: > 10 µM
[5]
  IC50: > 10 µM
[6]
  IC50: > 10 µM
[19]
  IC50: > 10 µM
[20]
  IC50: > 10 µM
[11]
  viability, T/C: 101%
[12]
  viability, T/C: 116%
[21]
  viability, T/C: 96.5%
[22]
  viability, T/C: 106%
[23]
  viability, T/C: 102%
[24]
  viability, T/C: 104%
[13]
  viability, T/C: 96.4%
[14]
  viability, T/C: 86.3%
[25]
  viability, T/C: 106%
[26]
  viability, T/C: 106%
[27]
  viability, T/C: 110%
[28]
  viability, T/C: 89.3%
[15]
  viability, T/C: 109%
[16]
  viability, T/C: 80.9%
[29]
  viability, T/C: 104%
[30]
  viability, T/C: 95.2%
[31]
  viability, T/C: 106%
[32]
  viability, T/C: 97.8%
[17]
  viability, T/C: 92.4%
[18]
  viability, T/C: 116%
[33]
  viability, T/C: 97.5%
[34]
  viability, T/C: 76.7%
[35]
  viability, T/C: 116%
[36]
  viability, T/C: 93.1%
[37]
  viability, T/C: 92.6%
[38]
  viability, T/C: 93.5%
[39]
  viability, T/C: 101%
[40]
  viability, T/C: 84.3%
[41]
  viability, T/C: 86.8%
[42]
  viability, T/C: 86%
[43]
  viability, T/C: 107%
[44]
  viability, T/C: 91.3%
[45]
  viability, T/C: 109%
[46]
  viability, T/C: 87.9%
[47]
  viability, T/C: 97.3%
[48]
  viability, T/C: 89.6%

## C=CC(=O)N1CCN(c2nc(=O)n(-c3c(C)ccnc3C(C)C)c3nc(-c4c(O)cccc4F)c(F)cc23)C(C)C1 (configuration not stated) + CC(Nc1ncnc2nc[nH]c12)c1cc2cccc(Cl)c2c(=O)n1-c1ccccc1
[3]
  IC50: > 10 µM
[4]
  IC50: > 10 µM
[5]
  IC50: > 10 µM
[6]
  IC50: > 10 µM
[19]
  IC50: > 10 µM
[20]
  IC50: > 10 µM
[11]
  viability, T/C: 98.2%
[12]
  viability, T/C: 80.2%
[21]
  viability, T/C: 93.8%
[22]
  viability, T/C: 92.8%
[23]
  viability, T/C: 105%
[24]
  viability, T/C: 112%
[13]
  viability, T/C: 121%
[14]
  viability, T/C: 73%
[25]
  viability, T/C: 90.1%
[26]
  viability, T/C: 86.4%
[27]
  viability, T/C: 115%
[28]
  viability, T/C: 139%
[15]
  viability, T/C: 107%
[16]
  viability, T/C: 110%
[29]
  viability, T/C: 93.6%
[30]
  viability, T/C: 85.3%
[31]
  viability, T/C: 89.6%
[32]
  viability, T/C: 117%
[17]
  viability, T/C: 74.3%
[18]
  viability, T/C: 89.2%
[33]
  viability, T/C: 88.5%
[34]
  viability, T/C: 98.4%
[35]
  viability, T/C: 118%
[36]
  viability, T/C: 115%
[37]
  viability, T/C: 75.5%
[38]
  viability, T/C: 92.3%
[39]
  viability, T/C: 94%
[40]
  viability, T/C: 94.1%
[41]
  viability, T/C: 107%
[42]
  viability, T/C: 122%
[43]
  viability, T/C: 100%
[44]
  viability, T/C: 92.5%
[45]
  viability, T/C: 94%
[46]
  viability, T/C: 112%
[47]
  viability, T/C: 106%
[48]
  viability, T/C: 113%

## Cn1ncc(Cl)c1-c1cc(C(=O)NC(CN)Cc2cccc(F)c2)sc1Cl (configuration not stated) + COc1c(OCCCN2CCOCC2)ccc2c3n(c(=NC(=O)c4cnc(N)nc4)nc12)CCN3
[1]
  IC50: > 10 µM
[2]
  IC50: > 10 µM
[3]
  IC50: > 10 µM
[4]
  IC50: < 0.0316 µM
[5]
  IC50: < 0.0316 µM
[6]
  IC50: < 0.0316 µM
[7]
  viability, T/C: 105%
[8]
  viability, T/C: 102%
Second compound 0.00316 µM, first compound 0.316 µM
  viability, T/C: 82.3%
Second compound 0.00316 µM, first compound 1 µM
  viability, T/C: 77.4%
Second compound 0.00316 µM, first compound 3.16 µM
  viability, T/C: 66.2%
Second compound 0.00316 µM, first compound 10 µM
  viability, T/C: 77.7%
[9]
  viability, T/C: 108%
[10]
  viability, T/C: 99.8%
Second compound 0.01 µM, first compound 0.316 µM
  viability, T/C: 80.5%
Second compound 0.01 µM, first compound 1 µM
  viability, T/C: 70.3%
Second compound 0.01 µM, first compound 3.16 µM
  viability, T/C: 70%
Second compound 0.01 µM, first compound 10 µM
  viability, T/C: 77.7%
[11]
  viability, T/C: 94.4%
[12]
  viability, T/C: 70.6%
[21]
  viability, T/C: 61.5%
[22]
  viability, T/C: 65%
[23]
  viability, T/C: 65.1%
[24]
  viability, T/C: 73.2%
[13]
  viability, T/C: 48.8%
[14]
  viability, T/C: 46.5%
[25]
  viability, T/C: 39.4%
[26]
  viability, T/C: 39.2%
[27]
  viability, T/C: 55.7%
[28]
  viability, T/C: 48.7%
[15]
  viability, T/C: 17.2%
[16]
  viability, T/C: 20.4%
[29]
  viability, T/C: 19.1%
[30]
  viability, T/C: 19.6%
[31]
  viability, T/C: 24.3%
[32]
  viability, T/C: 39.5%
[17]
  viability, T/C: 7.39%
[18]
  viability, T/C: 7.86%
[33]
  viability, T/C: 6.72%
[34]
  viability, T/C: 6.88%
[35]
  viability, T/C: 15.6%
[36]
  viability, T/C: 10.9%

## CC(Nc1ncnc2nc[nH]c12)c1cc2cccc(Cl)c2c(=O)n1-c1ccccc1 (configuration not stated)
Compound 0.0316 µM
  viability, T/C: 96.2% [middle of 8 runs]
Compound 0.316 µM
  viability, T/C: 96.2% [middle of 8 runs]
Compound alone, run of 04/25/2023
  IC50: > 10 µM

## CCCS(=O)(=O)Nc1ccc(F)c(C(=O)c2c[nH]c3ncc(-c4ccc(Cl)cc4)cc23)c1F
Compound 0.0316 µM
  viability, T/C: 91% and 97.4% (2×) and 99.9%
Compound 0.1 µM
  viability, T/C: 94.3% [middle of 4 runs]
Compound 0.316 µM
  viability, T/C: 106% [middle of 4 runs]
Compound 1 µM
  viability, T/C: 107% [middle of 4 runs]
Compound 10 µM
  viability, T/C: 47.2% [middle of 4 runs]
Curve of compound
  IC50: 9.4 µM [middle of 4 runs]
